From patent publication US7396844B1, “Benzamidine derivatives” (Ajinomoto Co., Inc., priority 1997, dated 2008)
Like-named read-outs stand apart in the source and are kept apart here.

Experiments:
[1] = target: T1, activated human blood coagulation factor X (Homo sapiens, UniProt P00742); test: Determination of activity of inhibiting the activated blood coagulation factor X; type: biochemical; settings: same manner as Example 93; for IC50: read-out: Activity of inhibiting activated blood coagulation factor X (pIC50) (converted)
T1 construct: purchased Enzyme Research Co
T1 sequence (P00742 235-488 limits assumed): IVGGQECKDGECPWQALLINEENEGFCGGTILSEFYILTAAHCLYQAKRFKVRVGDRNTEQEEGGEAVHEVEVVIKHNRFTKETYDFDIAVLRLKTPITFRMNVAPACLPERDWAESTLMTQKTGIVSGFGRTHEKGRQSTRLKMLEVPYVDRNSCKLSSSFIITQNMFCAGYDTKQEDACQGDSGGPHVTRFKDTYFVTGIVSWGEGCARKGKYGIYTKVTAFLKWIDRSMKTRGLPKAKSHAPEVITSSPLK
T1 sequence (P00742 41-179 partner limits assumed): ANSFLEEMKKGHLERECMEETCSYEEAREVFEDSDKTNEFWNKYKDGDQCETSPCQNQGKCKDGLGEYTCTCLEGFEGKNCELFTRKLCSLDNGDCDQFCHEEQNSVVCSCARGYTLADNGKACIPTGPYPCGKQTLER
Procedure: 130 μl of 100 mM Tris-HCl buffer adjusted to pH 8.4 was added to 10 μl of an aqueous solution of a compound to be tested. Then 10 μl of a 0.5 unit/ml solution of activated human blood coagulation factor X (a product of Enzyme Research Co.) in Tris-HCl buffer hydrochloride of pH 8.4 was added to the resultant mixture. After the incubation at room temperature for 10 minutes, 50 μl of a solution of N-benzoyl-L-isoleucyl-L-glutamyl-glycyl-L-arginyl-p-nitroanilide hydrochloride (a product of Peptide Institute, Inc.) adjusted to 0.8 mM with Tris-HCl buffer (pH 8.4) was added thereto. The absorbance was determined and then the initial reaction rate was determined. A control was prepared in the same manner as that described above except that the solution of the compound to be tested was replaced with 10 μl of Tris-HCl buffer adjusted to pH 8.4.

human thrombin = target: T2, human thrombin (Homo sapiens, UniProt P00734); test: Determination of thrombin-inhibiting activity; type: biochemical; settings: same manner as Example 94
T2 construct: human thrombin (a product of SIGMA Co.); purchased SIGMA Co
Procedure: 130 μl of 100 mM Tris-HCl buffer adjusted to pH 8.4 was added to 10 μl of an aqueous solution of a test compound. Then 10 μl of a solution of human thrombin (a product of SIGMA Co.) adjusted to 2 units/ml with Tris-HCl buffer of pH 8.4 was added to the resultant mixture. […] The absorbance was determined and then the initial reaction rate was determined. A control was prepared in the same manner as that described above except that the solution of the compound to be tested was replaced with 10 μl of tris hydrochloride buffer adjusted to pH 8.4.

blood plasma = test: Determination of blood anticoagulating activity by prothrombin time (PT); type: biochemical, human; set-up: key: -log of concentration doubling control PT
Procedure: The blood anticoagulating activity was determined by a prothrombin time (PT) determination method. The PT was determined as follows: The blood was taken from healthy people. […] The blood plasma was separated by the centrifugation. 5 μl of DMSO solution containing a test compound was added to 45 μl of the blood plasma. After the incubation at room temperature for 2 minutes, a test tube containing the blood plasma solution was placed in Sysmex CA-3000 fully automatic blood coagulation determination device (a product of Toa Medical Electronics Co., Ltd), and incubated at 37° C. for 3 minutes. […] PT was automatically determined with the device. A sample containing 5 μl of DMSO in place of the solution of the test compound was used as the control. The negative logarithm (PT2) of the concentration of the test compound which elongated PT of the control to the twice as long was determined, and employed as the index of the blood anticoagulating activity.

[2] = Table 2, read-out: Thrombin-inhibiting activity (pIC50) (converted)
[3] = Table 2, negative logarithm of concentration that elongated PT of the control to twice as long, plasma of healthy people
[4] = Table 3, same manner as Example 184, negative logarithm of concentration doubling PT
[5] = Table 3, read-out: Thrombin inhibiting activity (pIC50) (converted)

Row | Structure (SMILES) | IC50 ([1]; Table 2) | IC50 (human thrombin; [2]) | Blood anticoagulating activity (PT2) (blood plasma; [3]) | Activity of inhibiting activated blood coagulation factor X (pIC50) ([1]; Table 3) | Thrombin inhibiting activity (pIC50) (human thrombin; Table 3) | Blood anticoagulating activity (PT2) (blood plasma; [4]) | IC50 ([1]; Table 3) | IC50 (human thrombin; [5])
1 | CC(=N)N1CCC(Oc2ccc(C[C@@H](COc3cccc(C(=N)N)c3)NS(=O)(=O)c3ccc(/C=C/C(=O)O)cc3)cc2)CC1.O=C(O)C(F)(F)F.O=C(O)C(F)(F)F [Compound of Ex. 171, (2E)-3-[4-[(2S)-1-[4-(1-acetimidoyl-4-piperidyloxy)phenyl]-3-(3-amidinophenoxy)-2-propylsulfamoyl]phenyl]acrylic acid bistrifluoroacetate] | 0.1 µM | 39.8 µM | 6 | – | – | – | – | –
2 | CC(=N)N1CCC(Oc2ccc(C(=O)N[C@@H](COc3cc(C(=N)N)ccc3CC(=O)C(=O)O)CC(=O)O)cc2)CC1.O=C(O)C(F)(F)F.O=C(O)C(F)(F)F [Compound of Ex. 193, (3R)-4-[5-amidino-2-(2-carboxy-2-oxoethyl)phenoxy]-3-[4-(1-(1-iminoethyl)piperidyl-4-oxy)benzoylamino]butanoic acid bistrifluoroacetate] | – | – | – | 7.9 | 3.4 | 6.2 | – | –
3 | N=C(N)c1ccc(CC(=O)C(=O)O)c(OC[C@@H](CC(=O)O)NC(=O)c2ccc(C(=O)N3CCCC3)cc2)c1.O=C(O)C(F)(F)F [Compound of Ex. 191, (3R)-4-[5-amidino-2-(2-carboxy-2-oxoethyl)phenoxy]-3-[4-(pyrrolidine-1-carbonyl)benzoylamino]butanoic acid trifluoroacetate] | – | – | – | – | – | 6.0 | 0.00398 µM | 200 µM
4 | N=C(N)c1cccc(OCCNC(=O)c2ccc(CN)cc2)c1.O=C(O)C(F)(F)F.O=C(O)C(F)(F)F [Compound of Ex. 98, N-[2-(3-amidinophenoxy)ethyl]-4-(aminomethyl)benzamide bistrifluoroacetate] | 3.16 µM | 631 µM | <4.5 | – | – | – | – | –
5 | CN(C)C(=O)c1ccc(C(=O)N[C@@H](COc2cc(C(=N)N)ccc2CC(=O)C(=O)O)CC(=O)O)cc1.O=C(O)C(F)(F)F [Compound of Ex. 188, (3R)-4-[5-amidino-2-(2-carboxy-2-oxoethyl)phenoxy]-3-(4-dimethylcarbamoylbenzoylamino)butanoic acid trifluoroacetate] | – | – | – | – | – | 5.7 | 0.00794 µM | 398 µM
6 | CC(=N)N1CCC(Oc2ccc(C[C@@H](CCc3cccc(C(=N)N)c3)NS(=O)(=O)c3ccccc3)cc2)CC1.O=C(O)C(F)(F)F.O=C(O)C(F)(F)F [Compound of Ex. 175, 3-[(3R)-3-(benzenesulfonylamino)-4-[4-(1-acetimidoyl-4-piperidyloxy)phenyl]butyl]benzamidine bistrifluoroacetate] | 0.251 µM | 63.1 µM | 5.9 | – | – | – | – | –
7 | CC(=N)N1CCC(Cc2ccc(C[C@@H](COc3cccc(C(=N)N)c3)NS(=O)(=O)c3ccccc3)cc2)CC1.O=C(O)C(F)(F)F.O=C(O)C(F)(F)F [Compound of Ex. 165, 3-[(2S)-2-(benzenesulfonylamino)-3-[4-[(1-acetimidoyl-4-piperidyl)methyl]phenyl]propoxy]benzamidine bistrifluoroacetate] | 0.2 µM | 100 µM | 6 | – | – | – | – | –
8 | N=C(N)c1ccc(C(=O)N[C@@H](COc2cc(C(=N)N)ccc2CC(=O)C(=O)O)CC(=O)O)cc1.O=C(O)C(F)(F)F.O=C(O)C(F)(F)F [Compound of Ex. 186, (3R)-3-(4-amidinobenzoylamino)-4-[5-amidino-2-(2-carboxy-2-oxoethyl)phenoxy]butanoic acid bistrifluoroacetate] | – | – | – | – | – | 5.9 | 0.02 µM | 251 µM
9 | N=C(N)c1ccc(CC(=O)C(=O)O)c(OC[C@@H](CC(=O)O)NC(=O)c2ccc(S(=O)(=O)N3CCCC3)cc2)c1.O=C(O)C(F)(F)F [Compound of Ex. 195, (3R)-4-[5-amidino-2-(2-carboxy-2-oxoethyl)phenoxy]-3-[4-(pyrrolidine-1-sulfonyl)benzoylamino]butanoic acid trifluoroacetate] | – | – | – | – | – | 5.9 | 0.0316 µM | 31.6 µM
10 | CC(=N)N1CCC(Oc2ccc(C[C@@H](COc3cccc(C(=N)N)c3)NS(=O)(=O)c3ccccc3)cc2)CC1.O=C(O)C(F)(F)F.O=C(O)C(F)(F)F [Compound of Ex. 158, 3-[(2S)-2-(benzenesulfonylamino)-3-[4-(1-acetimidoyl-4-piperidyloxy)phenyl]propoxy]benzamidine bistrifluoroacetate] | 0.158 µM | 50.1 µM | 6.2 | – | – | – | – | –
11 | CC(=N)N1CCC(Oc2ccc(C(=O)NCCOc3cccc(C(=N)N)c3)cc2)CC1.O=C(O)C(F)(F)F.O=C(O)C(F)(F)F [Compound of Ex. 99, N-[2-(3-amidinophenoxy)ethyl]-4-(1-acetimidoyl-4-piperidyloxy)benzamide bistrifluoroacetate] | 0.251 µM | 316 µM | 6.2 | – | – | – | – | –
12 | CC(=N)N1CCC(Oc2ccc(C[C@@H](COc3cc(C(=N)N)ccc3CC(=O)C(=O)O)NS(=O)(=O)c3ccccc3)cc2)CC1.O=C(O)C(F)(F)F.O=C(O)C(F)(F)F [Compound of Ex. 181, 3-[4-amidino-2-[(2S)-3-[4-(1-acetimidoyl-4-piperidyloxy)phenyl]-2-(benzenesulfonylamino)propoxy]phenyl]-2-oxopropionic acid bistrifluoroacetate] | 0.02 µM | 1.58 µM | 6.7 | – | – | – | – | –
13 | CC(=N)N1CCC(Oc2ccc(C[C@@H](COc3cccc(C(=N)N)c3)NS(=O)(=O)c3ccc(C(=O)O)cc3)cc2)CC1.O=C(O)C(F)(F)F.O=C(O)C(F)(F)F [Compound of Ex. 168, 4-[(2S)-1-[4-(1-acetimidoyl-4-piperidyloxy)phenyl]-3-(3-amidinophenoxy)-2-propylsulfamoyl]benzoic acid bistrifluoroacetate] | 0.0316 µM | 79.4 µM | 6.2 | – | – | – | – | –
14 | N=C(N)c1ccc(CC(=O)C(=O)O)c(OC[C@H](Cc2ccc(OC3CCNCC3)cc2)NS(=O)(=O)c2ccccc2)c1.O=C(O)C(F)(F)F.O=C(O)C(F)(F)F [Compound of Ex. 180, 3-[4-amidino-2-[(2S)-2-(benzenesulfonylamino)-3-[4-(4-piperidyloxy)phenyl]propoxy]phenyl]-2-oxopropionic acid bistrifluoroacetate] | 0.158 µM | 3.16 µM | 5.7 | – | – | – | – | –
15 | N=C(N)c1ccc(C(=O)NCCCOc2cccc(C(=N)N)c2)cc1.O=C(O)C(F)(F)F.O=C(O)C(F)(F)F [Compound of Ex. 122, N-[3-(3-amidinophenoxy)propyl]-4-amidinobenzamide bistrifluoroacetate] | 0.501 µM | > 1000 µM | 4.5 | – | – | – | – | –
16 | CC(=N)N1CCC(Oc2ccc(C[C@H](NS(=O)(=O)c3ccccc3)C(=O)Nc3cccc(C(=N)N)c3)cc2)CC1.O=C(O)C(F)(F)F.O=C(O)C(F)(F)F [Compound of Ex. 178, (2S)—N-(3-amidinophenyl)-2-(benzenesulfonylamino)-3-[4-(1-acetimidoyl-4-piperidyloxy)phenyl]propionamide bistrifluoroacetate] | 0.501 µM | > 398 µM | 5.7 | – | – | – | – | –
17 | N=C(N)c1cccc(OC[C@H](Cc2ccc(OC3CCNCC3)cc2)NS(=O)(=O)c2ccccc2)c1.O=C(O)C(F)(F)F.O=C(O)C(F)(F)F [Compound of Ex. 154, 3-[(2S)-2-(benzenesulfonylamino)-3-[4-(4-piperidyloxy)phenyl]propoxy]benzamidine bistrifluoroacetate] | 1.58 µM | 79.4 µM | 5.1 | – | – | – | – | –
18 | N=C(N)c1ccc(C(=O)NCCOc2cc(C(=N)N)ccc2CC(=O)C(=O)O)cc1 [Compound of Ex. 147, bistrifluoroacetate] | 0.0398 µM | 20 µM | 6.5 | – | – | – | – | –
